Measured values: ChEMBL document CHEMBL4507273 (2021)

Experiments:
[1] = target: 5-hydroxytryptamine receptor 5A (Homo sapiens, UniProt P47898); test: GPCRScan assay: inhibition of 5-HT5A; parameters: radioligand conc. used [nm] 2.0 - 3.3, parental cells Flp-In CHO
[2] = target: T1, Alpha-2B adrenergic receptor (Homo sapiens, UniProt P18089); test: GPCRScan assay: inhibition of Alpha2B; parameters: radioligand conc. used [nm] 1.5 – 2.0, parental cells HEKT
T1 sequence (P18089 whole entry): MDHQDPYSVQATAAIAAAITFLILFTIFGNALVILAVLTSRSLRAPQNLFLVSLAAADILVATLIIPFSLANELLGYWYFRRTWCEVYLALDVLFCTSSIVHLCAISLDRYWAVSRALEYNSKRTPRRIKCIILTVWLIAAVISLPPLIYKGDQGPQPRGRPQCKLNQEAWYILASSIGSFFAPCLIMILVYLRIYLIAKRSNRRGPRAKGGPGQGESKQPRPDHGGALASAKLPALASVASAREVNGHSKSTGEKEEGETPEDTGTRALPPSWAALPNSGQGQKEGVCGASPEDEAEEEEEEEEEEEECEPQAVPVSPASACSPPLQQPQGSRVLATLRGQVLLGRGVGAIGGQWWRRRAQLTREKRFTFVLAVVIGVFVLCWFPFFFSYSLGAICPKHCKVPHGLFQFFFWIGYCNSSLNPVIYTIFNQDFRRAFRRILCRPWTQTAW

[3] = target: NUAK family SNF1-like kinase 1 (Homo sapiens) (UniProt O60285); conditions: Compound concentration 1000.0 nM
[4] = target: Serine/threonine-protein kinase BRSK2 (Homo sapiens) (UniProt Q8IWQ3); conditions: Compound concentration 1000.0 nM
[5] = target: Calcium/calmodulin-dependent protein kinase type II subunit alpha (Homo sapiens) (UniProt Q9UQM7); conditions: Compound concentration 1000.0 nM
Chain of Calcium/calmodulin-dependent protein kinase type II subunit alpha (Homo sapiens) (Q9UQM7 whole entry): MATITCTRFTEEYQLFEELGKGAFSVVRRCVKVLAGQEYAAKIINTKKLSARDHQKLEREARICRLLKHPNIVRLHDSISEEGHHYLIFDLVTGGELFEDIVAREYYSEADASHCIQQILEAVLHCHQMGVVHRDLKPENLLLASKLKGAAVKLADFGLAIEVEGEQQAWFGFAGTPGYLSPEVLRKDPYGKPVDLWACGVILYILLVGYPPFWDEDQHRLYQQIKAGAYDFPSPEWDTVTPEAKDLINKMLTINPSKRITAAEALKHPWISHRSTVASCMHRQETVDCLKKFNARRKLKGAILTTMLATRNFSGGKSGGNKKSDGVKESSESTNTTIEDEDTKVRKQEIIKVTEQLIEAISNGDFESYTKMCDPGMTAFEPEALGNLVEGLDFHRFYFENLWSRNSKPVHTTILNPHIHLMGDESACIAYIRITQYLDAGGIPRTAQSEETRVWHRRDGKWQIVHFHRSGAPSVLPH

[6] = target: Cyclin-dependent kinase 5 (Homo sapiens) (UniProt Q00535); conditions: Compound concentration 1000.0 nM
Chain of Cyclin-dependent kinase 5 (Homo sapiens) (Q00535 whole entry, looked up): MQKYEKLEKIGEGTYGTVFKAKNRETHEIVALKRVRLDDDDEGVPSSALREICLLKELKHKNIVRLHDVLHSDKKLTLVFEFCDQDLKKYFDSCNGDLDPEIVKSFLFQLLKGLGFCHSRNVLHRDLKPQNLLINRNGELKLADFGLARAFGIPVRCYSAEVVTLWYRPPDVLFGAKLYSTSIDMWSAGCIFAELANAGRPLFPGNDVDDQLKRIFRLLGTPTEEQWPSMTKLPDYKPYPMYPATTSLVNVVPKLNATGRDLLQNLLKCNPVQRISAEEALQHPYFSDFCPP

[7] = target: Casein kinase II subunit alpha (Homo sapiens) (UniProt P68400); conditions: Compound concentration 1000.0 nM
[8] = target: Megakaryocyte-associated tyrosine-protein kinase (Homo sapiens) (UniProt P42679); conditions: Compound concentration 1000.0 nM
[9] = target: Death-associated protein kinase 2 (Homo sapiens) (UniProt Q9UIK4); conditions: Compound concentration 1000.0 nM
Chain of Death-associated protein kinase 2 (Homo sapiens) (Q9UIK4 whole entry, looked up): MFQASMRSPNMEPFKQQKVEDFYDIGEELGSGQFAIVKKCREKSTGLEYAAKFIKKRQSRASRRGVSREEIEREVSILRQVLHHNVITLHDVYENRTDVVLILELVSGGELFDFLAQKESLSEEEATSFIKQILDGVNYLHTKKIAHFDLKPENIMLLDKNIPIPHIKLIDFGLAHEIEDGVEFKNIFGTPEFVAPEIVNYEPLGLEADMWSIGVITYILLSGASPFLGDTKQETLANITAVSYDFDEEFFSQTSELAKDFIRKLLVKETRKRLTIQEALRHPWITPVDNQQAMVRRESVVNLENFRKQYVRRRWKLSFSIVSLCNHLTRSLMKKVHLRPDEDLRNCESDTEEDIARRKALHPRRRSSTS

[10] = target: Serine/threonine-protein kinase 17B (Homo sapiens) (UniProt O94768); conditions: Compound concentration 1000.0 nM
[11] = target: Epidermal growth factor receptor (Homo sapiens, UniProt P00533); conditions: Compound concentration 1000.0 nM
[12] = target: Ephrin type-B receptor 6 (Homo sapiens) (UniProt O15197); conditions: Compound concentration 1000.0 nM
[13] = target: Mitogen-activated protein kinase 1 (Homo sapiens) (UniProt P28482); conditions: Compound concentration 1000.0 nM
[14] = target: Mitogen-activated protein kinase 15 (Homo sapiens) (UniProt Q8TD08); conditions: Compound concentration 1000.0 nM
[15] = target: Mitogen-activated protein kinase kinase kinase kinase 1 (Homo sapiens) (UniProt Q92918); conditions: Compound concentration 1000.0 nM
[16] = target: LIM domain kinase 2 (Homo sapiens) (UniProt P53671); conditions: Compound concentration 1000.0 nM
[17] = target: Serine/threonine-protein kinase 10 (Homo sapiens) (UniProt O94804); conditions: Compound concentration 1000.0 nM
[18] = target: Mitogen-activated protein kinase kinase kinase 15 (Homo sapiens) (UniProt Q6ZN16); conditions: Compound concentration 1000.0 nM
Chain of Mitogen-activated protein kinase kinase kinase 15 (Homo sapiens) (Q6ZN16 whole entry): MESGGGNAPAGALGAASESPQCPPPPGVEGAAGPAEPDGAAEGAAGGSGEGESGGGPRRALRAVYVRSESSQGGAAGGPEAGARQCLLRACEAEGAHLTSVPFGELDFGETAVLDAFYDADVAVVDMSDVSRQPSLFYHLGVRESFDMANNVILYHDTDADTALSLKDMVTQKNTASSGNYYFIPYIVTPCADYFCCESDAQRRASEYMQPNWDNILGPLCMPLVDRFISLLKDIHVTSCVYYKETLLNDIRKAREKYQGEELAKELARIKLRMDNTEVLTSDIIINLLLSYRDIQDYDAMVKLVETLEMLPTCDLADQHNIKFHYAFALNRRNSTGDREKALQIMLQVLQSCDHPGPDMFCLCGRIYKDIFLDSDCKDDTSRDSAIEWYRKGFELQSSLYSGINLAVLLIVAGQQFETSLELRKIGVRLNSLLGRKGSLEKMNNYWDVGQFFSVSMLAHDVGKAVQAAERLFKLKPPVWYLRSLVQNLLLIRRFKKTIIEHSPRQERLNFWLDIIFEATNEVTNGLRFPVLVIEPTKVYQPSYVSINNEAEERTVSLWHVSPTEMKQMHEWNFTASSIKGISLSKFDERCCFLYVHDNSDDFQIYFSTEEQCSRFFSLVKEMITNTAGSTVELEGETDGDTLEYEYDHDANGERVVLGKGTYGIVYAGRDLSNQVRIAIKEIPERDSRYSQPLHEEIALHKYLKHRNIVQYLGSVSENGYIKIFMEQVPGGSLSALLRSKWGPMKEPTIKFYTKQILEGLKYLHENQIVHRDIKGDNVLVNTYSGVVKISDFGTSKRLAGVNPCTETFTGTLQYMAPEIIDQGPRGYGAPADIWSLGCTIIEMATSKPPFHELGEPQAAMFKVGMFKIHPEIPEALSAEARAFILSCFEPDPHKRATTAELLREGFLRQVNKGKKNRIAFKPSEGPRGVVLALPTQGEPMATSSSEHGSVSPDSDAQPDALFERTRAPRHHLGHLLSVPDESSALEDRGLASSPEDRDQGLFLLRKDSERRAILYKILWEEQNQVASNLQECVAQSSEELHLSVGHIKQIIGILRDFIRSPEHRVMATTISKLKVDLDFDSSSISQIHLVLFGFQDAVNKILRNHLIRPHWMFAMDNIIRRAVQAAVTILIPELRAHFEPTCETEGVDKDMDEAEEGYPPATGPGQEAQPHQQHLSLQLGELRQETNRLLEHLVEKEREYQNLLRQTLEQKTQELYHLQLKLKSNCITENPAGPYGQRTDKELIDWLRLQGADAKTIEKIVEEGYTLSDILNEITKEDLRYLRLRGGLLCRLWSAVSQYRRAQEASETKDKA

[19] = target: Mitogen-activated protein kinase kinase kinase 4 (Homo sapiens) (UniProt Q9Y6R4); conditions: Compound concentration 1000.0 nM
[20] = target: MAP kinase-activated protein kinase 2 (Homo sapiens) (UniProt P49137); conditions: Compound concentration 1000.0 nM
[21] = target: MAP kinase-interacting serine/threonine-protein kinase 1 (Homo sapiens) (UniProt Q9BUB5); conditions: Compound concentration 1000.0 nM
[22] = target: Serine/threonine-protein kinase PAK 2 (Homo sapiens) (UniProt Q13177); conditions: Compound concentration 1000.0 nM
[23] = test system: Phosphatidylinositol 4,5-bisphosphate 3-kinase catalytic subunit alpha isoform (Homo sapiens), P42336 [E545A]; conditions: Compound concentration 1000.0 nM
Chain of Phosphatidylinositol 4,5-bisphosphate 3-kinase catalytic subunit alpha isoform (Homo sapiens), P42336 [E545A] (P42336 whole entry E545A, canonical isoform): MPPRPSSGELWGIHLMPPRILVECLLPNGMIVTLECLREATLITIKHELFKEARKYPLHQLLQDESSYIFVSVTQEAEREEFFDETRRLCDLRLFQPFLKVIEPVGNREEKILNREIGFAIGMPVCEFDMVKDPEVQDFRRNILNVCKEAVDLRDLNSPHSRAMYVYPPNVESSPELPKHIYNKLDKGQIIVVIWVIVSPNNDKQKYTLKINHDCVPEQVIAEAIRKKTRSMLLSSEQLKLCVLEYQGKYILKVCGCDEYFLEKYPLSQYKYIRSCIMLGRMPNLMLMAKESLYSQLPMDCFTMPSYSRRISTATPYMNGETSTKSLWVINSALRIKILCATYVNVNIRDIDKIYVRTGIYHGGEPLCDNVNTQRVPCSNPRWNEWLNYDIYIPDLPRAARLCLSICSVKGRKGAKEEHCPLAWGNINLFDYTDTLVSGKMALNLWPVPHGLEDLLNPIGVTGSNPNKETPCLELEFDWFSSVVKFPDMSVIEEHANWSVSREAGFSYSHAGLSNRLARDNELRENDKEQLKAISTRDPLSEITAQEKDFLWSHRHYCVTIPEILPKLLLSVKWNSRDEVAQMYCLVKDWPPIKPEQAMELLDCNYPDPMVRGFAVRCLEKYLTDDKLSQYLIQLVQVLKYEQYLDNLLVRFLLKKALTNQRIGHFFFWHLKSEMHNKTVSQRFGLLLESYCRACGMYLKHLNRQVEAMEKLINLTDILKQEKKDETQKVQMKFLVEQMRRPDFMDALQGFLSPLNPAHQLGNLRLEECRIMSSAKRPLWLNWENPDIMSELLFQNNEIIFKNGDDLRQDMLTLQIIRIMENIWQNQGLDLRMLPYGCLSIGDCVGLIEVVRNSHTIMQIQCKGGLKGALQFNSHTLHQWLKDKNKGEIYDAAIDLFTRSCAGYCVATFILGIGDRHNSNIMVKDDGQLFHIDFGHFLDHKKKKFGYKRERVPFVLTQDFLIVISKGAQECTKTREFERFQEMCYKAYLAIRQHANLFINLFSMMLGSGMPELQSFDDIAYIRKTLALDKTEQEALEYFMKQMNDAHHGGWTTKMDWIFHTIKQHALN

[24] = target: 1-phosphatidylinositol 3-phosphate 5-kinase (Homo sapiens) (UniProt Q9Y2I7); conditions: Compound concentration 1000.0 nM
[25] = target: Protein kinase C iota type (Homo sapiens) (UniProt P41743); conditions: Compound concentration 1000.0 nM
[26] = target: Receptor-interacting serine/threonine-protein kinase 1 (Homo sapiens) (UniProt Q13546); conditions: Compound concentration 1000.0 nM
[27] = target: Ribosomal protein S6 kinase alpha-1 (Homo sapiens) (UniProt Q15418); conditions: Compound concentration 1000.0 nM
Chain of Ribosomal protein S6 kinase alpha-1 (Homo sapiens) (Q15418 whole entry): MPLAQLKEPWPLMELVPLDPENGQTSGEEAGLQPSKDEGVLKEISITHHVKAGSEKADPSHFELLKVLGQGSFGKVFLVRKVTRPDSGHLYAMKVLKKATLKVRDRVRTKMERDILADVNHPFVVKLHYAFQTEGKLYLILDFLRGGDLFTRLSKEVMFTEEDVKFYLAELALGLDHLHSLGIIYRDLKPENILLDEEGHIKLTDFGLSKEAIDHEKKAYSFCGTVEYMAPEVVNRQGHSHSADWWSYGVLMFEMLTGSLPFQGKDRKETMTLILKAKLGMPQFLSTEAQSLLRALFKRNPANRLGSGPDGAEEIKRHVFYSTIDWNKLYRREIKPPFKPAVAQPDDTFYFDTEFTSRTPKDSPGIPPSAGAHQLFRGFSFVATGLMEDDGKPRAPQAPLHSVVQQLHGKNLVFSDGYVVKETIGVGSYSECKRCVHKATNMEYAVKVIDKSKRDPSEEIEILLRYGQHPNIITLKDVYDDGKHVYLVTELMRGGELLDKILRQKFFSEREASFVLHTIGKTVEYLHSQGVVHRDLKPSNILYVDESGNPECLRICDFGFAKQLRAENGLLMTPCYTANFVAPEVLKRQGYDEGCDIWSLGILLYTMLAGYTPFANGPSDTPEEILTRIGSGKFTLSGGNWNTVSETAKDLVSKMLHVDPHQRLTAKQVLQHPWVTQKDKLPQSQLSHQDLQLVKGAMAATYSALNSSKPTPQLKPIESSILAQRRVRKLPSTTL

[28] = target: Ribosomal protein S6 kinase beta-1 (Homo sapiens) (UniProt P23443); conditions: Compound concentration 1000.0 nM
[29] = target: Serine/threonine-protein kinase Sgk2 (Homo sapiens) (UniProt Q9HBY8); conditions: Compound concentration 1000.0 nM
Chain of Serine/threonine-protein kinase Sgk2 (Homo sapiens) (Q9HBY8 whole entry): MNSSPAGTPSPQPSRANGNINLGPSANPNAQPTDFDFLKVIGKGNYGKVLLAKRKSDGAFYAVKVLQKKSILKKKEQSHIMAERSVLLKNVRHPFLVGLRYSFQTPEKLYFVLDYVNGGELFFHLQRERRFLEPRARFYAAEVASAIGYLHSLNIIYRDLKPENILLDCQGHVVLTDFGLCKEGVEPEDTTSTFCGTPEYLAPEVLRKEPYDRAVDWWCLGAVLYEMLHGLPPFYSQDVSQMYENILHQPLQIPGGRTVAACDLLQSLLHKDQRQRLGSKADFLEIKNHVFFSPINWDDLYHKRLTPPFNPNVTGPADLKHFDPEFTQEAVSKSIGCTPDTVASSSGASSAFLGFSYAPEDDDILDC

[30] = target: TGF-beta receptor type-1 (Homo sapiens) (UniProt P36897); conditions: Compound concentration 1000.0 nM
[31] = target: High affinity nerve growth factor receptor (Homo sapiens) (UniProt P04629); conditions: Compound concentration 1000.0 nM
[32] = target: Dual specificity protein kinase TTK (Homo sapiens) (UniProt P33981); conditions: Compound concentration 1000.0 nM
[33] = target: Phosphatidylinositol 3-kinase catalytic subunit type 3 (Homo sapiens) (UniProt Q8NEB9); conditions: Compound concentration 1000.0 nM
[34] = target: 5-hydroxytryptamine receptor 7 (Homo sapiens, UniProt P34969); conditions: Compound concentration 10.0 uM
[35] = target: D(1B) dopamine receptor (Homo sapiens) (UniProt P21918); conditions: Compound concentration 10.0 uM
[36] = target: Sodium-dependent noradrenaline transporter (Homo sapiens, UniProt P23975); conditions: Compound concentration 10.0 uM
Mu-type opioid receptor = Mu-type opioid receptor (Homo sapiens, UniProt P35372); conditions: Compound concentration 10.0 uM
[37] = target: Beta-2 adrenergic receptor (Homo sapiens) (UniProt P07550); conditions: Compound concentration 10.0 uM
[38] = target: Alpha-1D adrenergic receptor (Homo sapiens) (UniProt P25100); conditions: Compound concentration 10.0 uM

Chain of 5-hydroxytryptamine receptor 5A (P47898 whole entry): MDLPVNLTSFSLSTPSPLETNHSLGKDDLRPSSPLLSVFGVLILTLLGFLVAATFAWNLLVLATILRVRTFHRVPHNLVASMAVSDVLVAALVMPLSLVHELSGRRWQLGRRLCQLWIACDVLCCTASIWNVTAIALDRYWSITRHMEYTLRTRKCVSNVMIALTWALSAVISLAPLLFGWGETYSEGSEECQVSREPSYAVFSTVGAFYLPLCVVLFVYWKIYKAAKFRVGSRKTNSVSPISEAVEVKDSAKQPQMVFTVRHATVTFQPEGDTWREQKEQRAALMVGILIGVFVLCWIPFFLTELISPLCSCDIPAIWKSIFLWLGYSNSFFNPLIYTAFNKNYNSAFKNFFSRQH

CNCc1ccccc1-c1csc([C@H](C)Nc2nc(C)nc3cc(OC)c(OC)cc23)c1 [BAY-294]
inactive: residual activity [3] 90% | residual activity [4] 100% | residual activity [5] 100% | residual activity [6] 98% | residual activity [7] 91% | residual activity [8] 51% | residual activity [9] 100% | residual activity [10] 100% | residual activity [11] 100% | residual activity [12] 87% | residual activity [13] 100% | residual activity [14] 100% | residual activity [15] 100% | residual activity [16] 100% | residual activity [17] 100% | residual activity [18] 77% | residual activity [19] 100% | residual activity [20] 80% | residual activity [21] 91% | residual activity [22] 97% | residual activity [23] 97% | residual activity [24] 100% | residual activity [25] 87% | residual activity [26] 100% | residual activity [27] 93% | residual activity [28] 83% | residual activity [29] 100% | residual activity [30] 80% | residual activity [31] 87% | residual activity [32] 100% | residual activity [33] 93% | inhibition [35] 36.6% | inhibition [37] 18.2%
847 nM: Ki ([2]; read-out: Ki)
813 nM: Ki ([2]; read-out: pKi (converted))
1060 nM: Ki ([1]; read-out: Ki)
active: inhibition [34] 70.7% | inhibition [36] 69.3% | inhibition (Mu-type opioid receptor) 67.3% | inhibition [38] 81.2%
977 nM: Ki ([1]; read-out: pKi (converted))

CNCc1ccccc1-c1csc([C@@H](C)Nc2nc(C)nc3cc(OC)c(OC)cc23)c1 [BAY-293]
active: inhibition [34] 76.2% | inhibition [36] 84% | inhibition [38] 75%
1230 nM: Ki ([2]; read-out: Ki)
inactive: residual activity [3] 97% | residual activity [4] 100% | residual activity [5] 99% | residual activity [6] 78% | residual activity [7] 83% | residual activity [8] 57% | residual activity [9] 100% | residual activity [10] 92% | residual activity [11] 90% | residual activity [12] 98% | residual activity [13] 78% | residual activity [14] 100% | residual activity [15] 83% | residual activity [16] 96% | residual activity [17] 95% | residual activity [18] 60% | residual activity [19] 73% | residual activity [20] 83% | residual activity [21] 83% | residual activity [22] 88% | residual activity [23] 91% | residual activity [24] 100% | residual activity [25] 100% | residual activity [26] 97% | residual activity [27] 76% | residual activity [28] 86% | residual activity [29] 95% | residual activity [30] 74% | residual activity [31] 87% | residual activity [32] 97% | residual activity [33] 100% | inhibition [35] 32.5% | inhibition (Mu-type opioid receptor) 46.8% | inhibition [37] 12.1%
2550 nM: Ki ([1]; read-out: Ki)
2140 nM: Ki ([1]; read-out: pKi (converted))
